Measured values reported in article PMC5218480 (PLoS ONE, 2017).

System: MV-4-11 cells
Assay: Gene expression microarray analysis (Affymetrix PrimeView) and GSEA
Assay type: cell-based, human
Parameters: RFU PODN (11730768_x_at) / Fold change /veh PODN (11730768_x_at) / RFU LINC00158 (11744669_a_at) / Fold change /veh LINC00158 (11744669_a_at) / RFU DUSP10 (11751237_a_at) / Fold change /veh DUSP10 (11751237_a_at) / RFU ID3 (11757404_x_at) / Fold change /veh ID3 (11757404_x_at) / RFU PLEKHG5 (11737974_s_at) / Fold change /veh PLEKHG5 (11737974_s_at) / RFU LRRC4B (11730491_at) / Fold change /veh LRRC4B (11730491_at) / RFU GIMAP4 (11747438_a_at) / Fold change /veh GIMAP4 (11747438_a_at) / RFU KRT8 (11758183_x_at) / Fold change /veh KRT8 (11758183_x_at) / RFU CNN1 (11734310_a_at) / Fold change /veh CNN1 (11734310_a_at) / RFU VPS37D (11726825_at) / Fold change /veh VPS37D (11726825_at) / RFU C10orf10 (11716522_x_at) / Fold change /veh C10orf10 (11716522_x_at) / RFU KIR2DL2 /// KIR2DL4 /// KIR2DL5A /// KIR2DL5B /// KIR2DS1 /// KIR2DS2 /// KIR2DS3 /// KIR2DS4 /// KIR3DL3 /// KIR3DL3 /// KIR3DS1 (11738374_at) / Fold change /veh KIR2DL2 /// KIR2DL4 /// KIR2DL5A /// KIR2DL5B /// KIR2DS1 /// KIR2DS2 /// KIR2DS3 /// KIR2DS4 /// KIR3DL3 /// KIR3DL3 /// KIR3DS1 (11738374_at) / RFU C1QL1 (11718748_at) / Fold change /veh C1QL1 (11718748_at) / RFU TMPRSS4 (11747572_a_at) / Fold change /veh TMPRSS4 (11747572_a_at) / RFU HAMP (11756126_x_at) / Fold change /veh HAMP (11756126_x_at) / RFU RNFT2 (11725882_a_at) / Fold change /veh RNFT2 (11725882_a_at) / RFU NR4A2 (11747474_a_at) / Fold change /veh NR4A2 (11747474_a_at) / RFU ABCC12 (11746883_a_at) / Fold change /veh ABCC12 (11746883_a_at) / RFU TMEM136 (11760407_x_at) / Fold change /veh TMEM136 (11760407_x_at) / RFU CLDN22 /// WWC2 (11732394_at) / Fold change /veh CLDN22 /// WWC2 (11732394_at) / RFU HLA-DPB1 (11760878_x_at) / Fold change /veh HLA-DPB1 (11760878_x_at) / RFU SPINT1 (11716480_a_at) / Fold change /veh SPINT1 (11716480_a_at) / RFU GAP43 (11754022_s_at) / Fold change /veh GAP43 (11754022_s_at) / RFU A4GNT (11735810_at) / Fold change /veh A4GNT (11735810_at) / RFU PRB3 (11715151_x_at) / Fold change /veh PRB3 (11715151_x_at) / RFU TUBB4B (11761932_at) / Fold change /veh TUBB4B (11761932_at) / RFU CAPN14 (11732068_a_at) / Fold change /veh CAPN14 (11732068_a_at) / RFU TMCC2 (11721928_a_at) / Fold change /veh TMCC2 (11721928_a_at) / RFU IRGQ (11745062_a_at) / Fold change /veh IRGQ (11745062_a_at) / RFU FAM174B (11720279_a_at) / Fold change /veh FAM174B (11720279_a_at) / RFU TMPRSS4 (11748680_a_at) / Fold change /veh TMPRSS4 (11748680_a_at) / RFU FAM212B (11763350_a_at) / Fold change /veh FAM212B (11763350_a_at) / RFU PLEKHG5 (11743358_a_at) / Fold change /veh PLEKHG5 (11743358_a_at) / RFU ZSCAN30 (11745921_a_at) / Fold change /veh ZSCAN30 (11745921_a_at) / RFU CMKLR1 (11741424_a_at) / Fold change /veh CMKLR1 (11741424_a_at) / RFU LOC101060620 /// MAPK8IP1 (11723275_at) / Fold change /veh LOC101060620 /// MAPK8IP1 (11723275_at) / RFU SPTSSB (11747773_x_at) / Fold change /veh SPTSSB (11747773_x_at) / RFU PRSS12 (11739890_at) / Fold change /veh PRSS12 (11739890_at) / RFU BIN1 (11741810_x_at) / Fold change /veh BIN1 (11741810_x_at) / RFU WNT11 (11732464_a_at) / Fold change /veh WNT11 (11732464_a_at) / RFU C10orf10 (11716521_a_at) / Fold change /veh C10orf10 (11716521_a_at) / RFU C5orf56 (11738089_at) / Fold change /veh C5orf56 (11738089_at) / RFU CYB561 (11721691_x_at) / Fold change /veh CYB561 (11721691_x_at) / RFU ANKRD19P (11752326_a_at) / Fold change /veh ANKRD19P (11752326_a_at) / RFU OR2T12 /// OR2T33 /// OR2T8 (11738714_s_at) / Fold change /veh OR2T12 /// OR2T33 /// OR2T8 (11738714_s_at) / RFU VCAN (11748164_a_at) / Fold change /veh VCAN (11748164_a_at) / RFU JSRP1 (11732532_at) / Fold change /veh JSRP1 (11732532_at) / RFU KRTAP10-11 (11738290_x_at) / Fold change /veh KRTAP10-11 (11738290_x_at) / RFU MYO3A (11730013_a_at) / Fold change /veh MYO3A (11730013_a_at) / RFU EBF3 (11725865_a_at) / Fold change /veh EBF3 (11725865_a_at) / RFU CAMK2N1 (11719241_x_at) / Fold change /veh CAMK2N1 (11719241_x_at) / RFU C5orf56 (11738088_a_at) / Fold change /veh C5orf56 (11738088_a_at) / RFU OLFML3 (11715873_a_at) / Fold change /veh OLFML3 (11715873_a_at) / RFU LOC100653217 /// NTM (11731650_a_at) / Fold change /veh LOC100653217 /// NTM (11731650_a_at) / RFU MAPK11 (11762145_a_at) / Fold change /veh MAPK11 (11762145_a_at) / RFU FIZ1 (11724087_x_at) / Fold change /veh FIZ1 (11724087_x_at) / RFU OASL (11726364_x_at) / Fold change /veh OASL (11726364_x_at) / RFU SOX15 (11748057_x_at) / Fold change /veh SOX15 (11748057_x_at) / RFU CD79A (11719716_a_at) / Fold change /veh CD79A (11719716_a_at) / RFU HIST1H1D (11736915_at) / Fold change /veh HIST1H1D (11736915_at) / RFU CASKIN2 (11723855_a_at) / Fold change /veh CASKIN2 (11723855_a_at) / RFU LOC730098 (11760151_x_at) / Fold change /veh LOC730098 (11760151_x_at) / RFU OR4N2 (11742367_at) / Fold change /veh OR4N2 (11742367_at) / RFU PRRT2 (11749266_a_at) / Fold change /veh PRRT2 (11749266_a_at) / RFU SNX32 (11753110_a_at) / Fold change /veh SNX32 (11753110_a_at) / RFU CDHR5 (11726645_a_at) / Fold change /veh CDHR5 (11726645_a_at) / RFU RCAN1 (11760418_a_at) / Fold change /veh RCAN1 (11760418_a_at) / RFU FAM167A (11723789_a_at) / Fold change /veh FAM167A (11723789_a_at) / RFU FAM26E (11764081_at) / Fold change /veh FAM26E (11764081_at) / RFU ISYNA1 (11749810_s_at) / Fold change /veh ISYNA1 (11749810_s_at) / RFU ACY1 (11761880_at) / Fold change /veh ACY1 (11761880_at) / RFU 11764098_at / Fold change /veh 11764098_at / RFU SAMD14 (11745864_x_at) / Fold change /veh SAMD14 (11745864_x_at) / RFU NPB (11741838_a_at) / Fold change /veh NPB (11741838_a_at) / RFU TMPRSS6 (11731388_a_at) / Fold change /veh TMPRSS6 (11731388_a_at) / RFU KRTAP10-2 (11738614_at) / Fold change /veh KRTAP10-2 (11738614_at) / RFU ARHGAP8 /// PRR5-ARHGAP8 (11727945_x_at) / Fold change /veh ARHGAP8 /// PRR5-ARHGAP8 (11727945_x_at) / RFU KRTAP5-7 /// NADSYN1 (11734609_at) / Fold change /veh KRTAP5-7 /// NADSYN1 (11734609_at) / RFU RASL12 (11751679_a_at) / Fold change /veh RASL12 (11751679_a_at) / RFU CDKN2B (11736163_a_at) / Fold change /veh CDKN2B (11736163_a_at) / RFU PRF1 (11729649_at) / Fold change /veh PRF1 (11729649_at) / RFU, ZNF638 /// ZNF638-IT1 / Fold change vs veh, ZNF638 /// ZNF638-IT1 / RFU, PANK3 / Fold change vs veh, PANK3 / RFU, SH3YL1 / Fold change vs veh, SH3YL1 / RFU, ZEB2 / Fold change vs veh, ZEB2 / RFU, NRIP1 / Fold change vs veh, NRIP1 / RFU, PTTG1IP / Fold change vs veh, PTTG1IP / RFU, CAPN2 / Fold change vs veh, CAPN2 / RFU, MED14 / Fold change vs veh, MED14 / RFU, SNORA58 / Fold change vs veh, SNORA58 / RFU, C1orf63 / Fold change vs veh, C1orf63 / RFU, LRRFIP1 / Fold change vs veh, LRRFIP1 / RFU, NDUFAF7 / Fold change vs veh, NDUFAF7 / RFU, SLC12A2 / Fold change vs veh, SLC12A2 / RFU, IBTK / Fold change vs veh, IBTK / RFU, ESF1 / Fold change vs veh, ESF1 / Fold change vs veh, TMEM50B / RFU, TAOK1 / Fold change vs veh, TAOK1 / RFU, ACBD3 / Fold change vs veh, ACBD3 / RFU, TMA16 / Fold change vs veh, TMA16 / RFU, RWDD3 / Fold change vs veh, RWDD3 / RFU, BCAT1 / Fold change vs veh, BCAT1 / RFU, EDEM3 / Fold change vs veh, EDEM3 / RFU, TMEM33 / Fold change vs veh, TMEM33 / RFU, WDR75 / Fold change vs veh, WDR75 / RFU, AHCTF1 / Fold change vs veh, AHCTF1 / RFU, TFRC / Fold change vs veh, TFRC / RFU, ZDHHC17 / Fold change vs veh, ZDHHC17 / RFU, NOM1 / Fold change vs veh, NOM1 / RFU, ARL8B / Fold change vs veh, ARL8B / RFU, ZBTB11 / Fold change vs veh, ZBTB11 / RFU, TAMM41 / Fold change vs veh, TAMM41 / RFU, KIAA1704 /// LOC100996395 / Fold change vs veh, KIAA1704 /// LOC100996395 / RFU, ING1 / Fold change vs veh, ING1 / RFU, TRMT61B / Fold change vs veh, TRMT61B / RFU, FUBP3 / Fold change vs veh, FUBP3 / RFU, TP53 / Fold change vs veh, TP53 / RFU, TNKS2 / Fold change vs veh, TNKS2 / RFU, ZFP14 / Fold change vs veh, ZFP14 / RFU, ACTR2 / Fold change vs veh, ACTR2 / RFU, PPP3R1 / Fold change vs veh, PPP3R1 / RFU, PIK3R1 / Fold change vs veh, PIK3R1 / RFU, HNRNPA1 / Fold change vs veh, HNRNPA1 / RFU, RNF170 / Fold change vs veh, RNF170 / RFU, ZNF28 / Fold change vs veh, ZNF28 / RFU, RNGTT / Fold change vs veh, RNGTT / RFU, OGT / Fold change vs veh, OGT / RFU, BRD1 / Fold change vs veh, BRD1 / RFU, MARS / Fold change vs veh, MARS / RFU, ZNF655 / Fold change vs veh, ZNF655 / RFU, FAHD1 / Fold change vs veh, FAHD1 / RFU, BDP1 / Fold change vs veh, BDP1 / RFU, LRRCC1 / Fold change vs veh, LRRCC1 / RFU, ARID1A / Fold change vs veh, ARID1A / RFU, ZNF146 / Fold change vs veh, ZNF146 / RFU, ZNF330 / Fold change vs veh, ZNF330 / RFU, GPN3 / Fold change vs veh, GPN3 / RFU, C9orf123 / Fold change vs veh, C9orf123 / RFU, N4BP2L2 / Fold change vs veh, N4BP2L2 / RFU, ARFIP1 / Fold change vs veh, ARFIP1 / RFU, FAM179B / Fold change vs veh, FAM179B / RFU, BCL10 / Fold change vs veh, BCL10 / RFU, UHRF1BP1L / Fold change vs veh, UHRF1BP1L / RFU, BET1 / Fold change vs veh, BET1 / RFU, CNOT2 / Fold change vs veh, CNOT2 / RFU, ZNF268 / Fold change vs veh, ZNF268 / Fold change vs veh, ZNF507 / RFU, DGCR2 / Fold change vs veh, DGCR2 / RFU, WDSUB1 / Fold change vs veh, WDSUB1 / Fold change vs veh, HSP90B1 /// MIR3652 / RFU, ADSS / Fold change vs veh, ADSS / RFU, GK / Fold change vs veh, GK / RFU, ZNF148 / Fold change vs veh, ZNF148 / RFU, TAF9 / Fold change vs veh, TAF9 / RFU, SLC1A5 / Fold change vs veh, SLC1A5 / RFU, SLMO2 / Fold change vs veh, SLMO2 / RFU, ABCC4 / Fold change vs veh, ABCC4 / RFU, LOC101060439 /// RAP1B / Fold change vs veh, LOC101060439 /// RAP1B / RFU, RFX7 / Fold change vs veh, RFX7 / RFU, GTPBP10 / Fold change vs veh, GTPBP10 / RFU, CNEP1R1 / Fold change vs veh, CNEP1R1 / RFU, BIVM-ERCC5 /// ERCC5 / Fold change vs veh, BIVM-ERCC5 /// ERCC5 / RFU, ILF3 / Fold change vs veh, ILF3 / RFU 11762660_at / Fold change /veh 11762660_at / RFU VCAN (11757783_s_at) / Fold change /veh VCAN (11757783_s_at) / RFU DDX43 (11728927_at) / Fold change /veh DDX43 (11728927_at) / RFU KRT8 (11758188_x_at) / Fold change /veh KRT8 (11758188_x_at) / RFU NKD1 (11759106_at) / Fold change /veh NKD1 (11759106_at) / RFU SRD5A1 (11742802_a_at) / Fold change /veh SRD5A1 (11742802_a_at) / RFU TPSAB1 /// TPSB2 (11721975_s_at) / Fold change /veh TPSAB1 /// TPSB2 (11721975_s_at) / RFU GSTM3 (11746129_a_at) / Fold change /veh GSTM3 (11746129_a_at) / RFU IL23R (11737362_x_at) / Fold change /veh IL23R (11737362_x_at) / RFU TMEM51 (11727254_a_at) / Fold change /veh TMEM51 (11727254_a_at) / RFU PIWIL2 (11732686_x_at) / Fold change /veh PIWIL2 (11732686_x_at) / RFU ORM1 (11744905_x_at) / Fold change /veh ORM1 (11744905_x_at) / RFU CCDC152 (11743942_at) / Fold change /veh CCDC152 (11743942_at) / RFU ECM1 (11717891_a_at) / Fold change /veh ECM1 (11717891_a_at) / RFU IL23R (11748794_a_at) / Fold change /veh IL23R (11748794_a_at) / RFU TNFAIP8L3 (11732012_x_at) / Fold change /veh TNFAIP8L3 (11732012_x_at) / RFU MBOAT4 (11741988_at) / Fold change /veh MBOAT4 (11741988_at) / RFU 11764193_at / Fold change /veh 11764193_at / RFU TMEM53 (11763286_at) / Fold change /veh TMEM53 (11763286_at) / RFU MAGEB2 (11727129_at) / Fold change /veh MAGEB2 (11727129_at) / RFU TMEM200A (11744735_a_at) / Fold change /veh TMEM200A (11744735_a_at) / RFU CCDC152 (11751479_a_at) / Fold change /veh CCDC152 (11751479_a_at) / RFU FAM211A (11726209_a_at) / Fold change /veh FAM211A (11726209_a_at) / RFU RGS16 (11746705_a_at) / Fold change /veh RGS16 (11746705_a_at) / RFU VCAN (11755009_s_at) / Fold change /veh VCAN (11755009_s_at) / RFU RHOB (11743442_s_at) / Fold change /veh RHOB (11743442_s_at) / RFU RGS16 (11720943_a_at) / Fold change /veh RGS16 (11720943_a_at) / RFU RGS16 (11720944_at) / Fold change /veh RGS16 (11720944_at) / RFU, VPS4B / Fold change vs veh, VPS4B / RFU, CREB1 / Fold change vs veh, CREB1 / RFU, DNAJC13 / Fold change vs veh, DNAJC13 / RFU, GNAQ / Fold change vs veh, GNAQ / RFU, CDK5R1 / Fold change vs veh, CDK5R1 / RFU, ZRANB3 / Fold change vs veh, ZRANB3 / RFU, CUL4A / Fold change vs veh, CUL4A / RFU, CCNY / Fold change vs veh, CCNY / RFU, UFL1 / Fold change vs veh, UFL1 / RFU, COG3 / Fold change vs veh, COG3 / RFU, DIAPH2 / Fold change vs veh, DIAPH2 / RFU, SKA2 / Fold change vs veh, SKA2 / RFU, AFF3 / Fold change vs veh, AFF3 / RFU, LMF1 / Fold change vs veh, LMF1 / RFU, IPO11 / Fold change vs veh, IPO11 / RFU, DFFB / Fold change vs veh, DFFB / RFU, FOXP1 / Fold change vs veh, FOXP1 / RFU, CARD8 / Fold change vs veh, CARD8 / RFU, STRN3 / Fold change vs veh, STRN3 / RFU, ADK / Fold change vs veh, ADK / RFU, RASSF2 / Fold change vs veh, RASSF2 / RFU, WIPF1 / Fold change vs veh, WIPF1 / RFU, LARP1B / Fold change vs veh, LARP1B / RFU, RASA1 / Fold change vs veh, RASA1 / RFU, RB1 / Fold change vs veh, RB1 / RFU, PPFIA1 / Fold change vs veh, PPFIA1 / RFU, MAT2A / Fold change vs veh, MAT2A / RFU, CCT5 / Fold change vs veh, CCT5 / RFU, WDR92 / Fold change vs veh, WDR92 / RFU, CUX1 / Fold change vs veh, CUX1 / RFU, TTC7A / Fold change vs veh, TTC7A / RFU, TMEM135 / Fold change vs veh, TMEM135 / RFU, DEPTOR / Fold change vs veh, DEPTOR / RFU, CPM / Fold change vs veh, CPM / RFU, DNAJB6 / Fold change vs veh, DNAJB6 / RFU, CACNA2D3 / Fold change vs veh, CACNA2D3 / RFU, DTX4 / Fold change vs veh, DTX4 / RFU, TFCP2 / Fold change vs veh, TFCP2 / RFU, GMCL1 /// GMCL1P1 / Fold change vs veh, GMCL1 /// GMCL1P1 / RFU, AEBP2 / Fold change vs veh, AEBP2 / RFU, SNHG1 /// SNORD22 /// SNORD25 /// SNORD26 /// SNORD27 /// SNORD28 /// SNORD29 /// SNORD31 / Fold change vs veh, SNHG1 /// SNORD22 /// SNORD25 /// SNORD26 /// SNORD27 /// SNORD28 /// SNORD29 /// SNORD31 / Fold change (Aza/veh), C12orf56 (ProbeSet 11735607_a_at) / Fold change (ACY-1035/veh), C12orf56 (ProbeSet 11735607_a_at) / Fold change (Aza/veh), FGFR1OP (ProbeSet 11751329_s_at) / Fold change (ACY-1035/veh), FGFR1OP (ProbeSet 11751329_s_at) / Fold change (Aza/veh), VPS36 (ProbeSet 11739960_a_at) / Fold change (ACY-1035/veh), VPS36 (ProbeSet 11739960_a_at) / RFU SYPL1 (11715823_x_at) / Fold change /veh SYPL1 (11715823_x_at) / RFU IGFBP7 (11715501_s_at) / Fold change /veh IGFBP7 (11715501_s_at) / RFU REEP3 (11722064_at) / Fold change /veh REEP3 (11722064_at) / RFU IGLL1 (11728026_x_at) / Fold change /veh IGLL1 (11728026_x_at): dose or concentration left out as unconfirmed
Conditions: ProbeSet 11752001_a_at; LIST D

Nc1ccc(-c2cccs2)cc1NC(=O)c1ccc2c(c1)cc(C1CC1)n2CCN1CCOCC1 [ACY-1035]
RFU, CUL4A: 438.04 RFU
